Experimental data reported in patent US10039759B2, “Quinolines as FGFR kinase modulators” (priority 2011, dated 2018).
Read-outs that look alike come from different tables or passages of the source.

Key:
FGFR4 (h) = FGFR4 (h) (Homo sapiens, UniProt P22455); test: FGFR4 (enzymatic assay), TR-FRET; assay type: biochemical; details: FGFR 4 pIC50, 5 μM ATP, 60 min; pIC50 = -log IC50 (M); average if tested multiple times
[1] = test system: Ba/F3-KDR-transfected cells; test: Ba/F3-KDR (minus IL3 or plus IL3) cellular proliferation assay, Alamar Blue; assay type: cell-based; details: read-out: BAF3-KDR (PLUS IL3 Alamar Blue pIC50) (converted)
Method in brief: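 Ba/F3-KDR cells, 20000 per well, exposed to compounds (10 μM to 0.1 nM) for 24 h at 37°C in RPMI/10% FBS, then Alamar Blue for 4 h; fluorescence ex 540/em 590 nm gives IC50 and pIC50. Counterscreen run with 10 ng/ml murine IL3.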

[2] = test system: Ba/F3-FGFR3-transfected cells; test: Ba/F3-FGFR3 (minus IL3 or plus IL3) cellular proliferation assay, Alamar Blue; assay type: cell-based; details: read-out: BAF3-FGFR3 (PLUS IL3 Alamar Blue pIC50) (converted)
Method in brief: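 Ba/F3-FGFR3 cells (20000 per well) in phenol red-free RPMI-1640 with 10% FBS were exposed to compound (10 μM to 0.1 nM) for 24 h at 37° C. Alamar Blue was then added for 4 h and fluorescence read (ex 540, em 590 nm) to give IC50/pIC50; the counterscreen was run with 10 ng/ml murine IL3.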

[3] = biological target: T1, Ba/F3-FGFR1-transfected cells (Homo sapiens, UniProt P11362, cells depend on it, form not given); test: Ba/F3-FGFR1 (minus IL3 or plus IL3) cellular proliferation assay, Alamar Blue; assay type: cell-based; details: minus IL3, 24 hours
T1 construct: other: minus IL3; 24 hours, Alamar Blue
Method in brief: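 Ba/F3-FGFR1 cells (20000/well) were treated with compound (10 μM–0.1 nM) for 24 h at 37 °C. Alamar Blue was then added for 4 h, with fluorescence read at ex 540/em 590 nm to give IC50/pIC50. A counterscreen was run with 10 ng/ml murine IL3.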

FGFR1 (h) = FGFR1 (h) (Homo sapiens, UniProt P11362); test: FGFR1 (enzymatic assay), TR-FRET; assay type: biochemical; details: FGFR 1 pIC50, 5 μM ATP, 60 min; pIC50 = -log IC50 (M); average if tested multiple times
KDR (h) = KDR (h) (Homo sapiens, UniProt P35968); test: KDR (VEGFR2) (enzymatic assay), TR-FRET; assay type: biochemical; details: 3 μM ATP, 120 min; pIC50 = -log IC50 (M); average if tested multiple times; read-out: VEGFR KDR pIC50 (converted)
Method in brief: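 Recombinant human KDR (150 ng/ml) phosphorylated 500 nM Btn-Flt3 with 3 μM ATP in HEPES pH 7.5/MnCl2 buffer, 1% DMSO, 120 min at room temperature; EDTA stop with Eu-anti-P-Tyr/SA-XL665 detection, TR-FRET read. IC50 and pIC50 derived from compound concentrations spanning 10 μM to 0.1 nM.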

FGFR2 (h) = FGFR2 (h) (Homo sapiens, UniProt P21802); test: FGFR2 (enzymatic assay), TR-FRET; assay type: biochemical; details: 0.4 μM ATP, 60 min; pIC50 = -log IC50 (M); average if tested multiple times; read-out: FGFR 2 pIC50 (converted)
FGFR3 (h) = FGFR3 (h) (Homo sapiens, UniProt P22607); test: FGFR3 (enzymatic assay), TR-FRET; assay type: biochemical; details: 25 μM ATP, 60 min; pIC50 = -log IC50 (M); average if tested multiple times; read-out: hFGFR 3 pIC50 (converted)
[4] = plus IL3 (10 ng/ml murine IL3, counterscreen), 24 hours, Alamar Blue

Sequence of FGFR1 (h) (P11362 22-822): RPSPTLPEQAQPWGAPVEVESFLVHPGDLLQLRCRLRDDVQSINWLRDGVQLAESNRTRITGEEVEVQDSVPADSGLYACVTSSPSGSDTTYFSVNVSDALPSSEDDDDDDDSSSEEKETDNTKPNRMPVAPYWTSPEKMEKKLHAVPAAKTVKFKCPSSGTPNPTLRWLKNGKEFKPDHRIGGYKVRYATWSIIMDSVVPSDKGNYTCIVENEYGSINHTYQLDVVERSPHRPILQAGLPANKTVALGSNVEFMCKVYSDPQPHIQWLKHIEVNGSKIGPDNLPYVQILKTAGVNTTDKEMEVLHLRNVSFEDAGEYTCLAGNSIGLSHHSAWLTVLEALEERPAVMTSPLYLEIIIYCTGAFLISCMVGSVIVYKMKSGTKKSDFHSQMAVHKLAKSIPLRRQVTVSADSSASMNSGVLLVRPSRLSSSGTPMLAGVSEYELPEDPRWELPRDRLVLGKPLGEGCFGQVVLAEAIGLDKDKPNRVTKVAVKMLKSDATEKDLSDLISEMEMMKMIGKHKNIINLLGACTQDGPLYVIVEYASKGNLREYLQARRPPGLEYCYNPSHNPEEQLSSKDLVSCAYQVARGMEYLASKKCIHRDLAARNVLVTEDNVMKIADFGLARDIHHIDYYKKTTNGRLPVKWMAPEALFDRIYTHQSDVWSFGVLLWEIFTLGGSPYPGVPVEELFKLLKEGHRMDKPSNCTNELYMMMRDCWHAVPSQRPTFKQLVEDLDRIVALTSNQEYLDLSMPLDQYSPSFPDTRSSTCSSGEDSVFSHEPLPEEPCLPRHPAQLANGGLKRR
Sequence of FGFR2 (h) (P21802 22-821): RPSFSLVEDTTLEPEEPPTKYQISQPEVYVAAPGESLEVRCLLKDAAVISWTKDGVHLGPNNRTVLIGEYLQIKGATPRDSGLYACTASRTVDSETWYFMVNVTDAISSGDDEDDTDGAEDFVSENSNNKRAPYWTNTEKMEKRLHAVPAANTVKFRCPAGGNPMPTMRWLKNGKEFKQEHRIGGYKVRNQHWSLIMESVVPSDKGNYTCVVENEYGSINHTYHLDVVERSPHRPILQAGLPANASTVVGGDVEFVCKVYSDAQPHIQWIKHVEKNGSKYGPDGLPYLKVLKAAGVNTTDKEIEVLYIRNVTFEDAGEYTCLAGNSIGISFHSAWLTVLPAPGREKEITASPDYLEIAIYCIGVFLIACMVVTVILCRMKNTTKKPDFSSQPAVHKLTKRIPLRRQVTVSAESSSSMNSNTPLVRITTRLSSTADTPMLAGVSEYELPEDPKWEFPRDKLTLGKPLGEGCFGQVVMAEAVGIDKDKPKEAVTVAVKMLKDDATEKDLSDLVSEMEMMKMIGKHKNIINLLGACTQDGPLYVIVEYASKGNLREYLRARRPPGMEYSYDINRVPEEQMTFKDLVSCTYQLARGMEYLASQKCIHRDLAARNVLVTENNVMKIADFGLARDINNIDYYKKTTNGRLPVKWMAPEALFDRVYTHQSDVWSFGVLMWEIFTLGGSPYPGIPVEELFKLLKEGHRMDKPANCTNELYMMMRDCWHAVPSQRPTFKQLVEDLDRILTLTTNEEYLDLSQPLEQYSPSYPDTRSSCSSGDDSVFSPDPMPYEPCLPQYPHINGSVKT
Sequence of KDR (h) (P35968 20-1356): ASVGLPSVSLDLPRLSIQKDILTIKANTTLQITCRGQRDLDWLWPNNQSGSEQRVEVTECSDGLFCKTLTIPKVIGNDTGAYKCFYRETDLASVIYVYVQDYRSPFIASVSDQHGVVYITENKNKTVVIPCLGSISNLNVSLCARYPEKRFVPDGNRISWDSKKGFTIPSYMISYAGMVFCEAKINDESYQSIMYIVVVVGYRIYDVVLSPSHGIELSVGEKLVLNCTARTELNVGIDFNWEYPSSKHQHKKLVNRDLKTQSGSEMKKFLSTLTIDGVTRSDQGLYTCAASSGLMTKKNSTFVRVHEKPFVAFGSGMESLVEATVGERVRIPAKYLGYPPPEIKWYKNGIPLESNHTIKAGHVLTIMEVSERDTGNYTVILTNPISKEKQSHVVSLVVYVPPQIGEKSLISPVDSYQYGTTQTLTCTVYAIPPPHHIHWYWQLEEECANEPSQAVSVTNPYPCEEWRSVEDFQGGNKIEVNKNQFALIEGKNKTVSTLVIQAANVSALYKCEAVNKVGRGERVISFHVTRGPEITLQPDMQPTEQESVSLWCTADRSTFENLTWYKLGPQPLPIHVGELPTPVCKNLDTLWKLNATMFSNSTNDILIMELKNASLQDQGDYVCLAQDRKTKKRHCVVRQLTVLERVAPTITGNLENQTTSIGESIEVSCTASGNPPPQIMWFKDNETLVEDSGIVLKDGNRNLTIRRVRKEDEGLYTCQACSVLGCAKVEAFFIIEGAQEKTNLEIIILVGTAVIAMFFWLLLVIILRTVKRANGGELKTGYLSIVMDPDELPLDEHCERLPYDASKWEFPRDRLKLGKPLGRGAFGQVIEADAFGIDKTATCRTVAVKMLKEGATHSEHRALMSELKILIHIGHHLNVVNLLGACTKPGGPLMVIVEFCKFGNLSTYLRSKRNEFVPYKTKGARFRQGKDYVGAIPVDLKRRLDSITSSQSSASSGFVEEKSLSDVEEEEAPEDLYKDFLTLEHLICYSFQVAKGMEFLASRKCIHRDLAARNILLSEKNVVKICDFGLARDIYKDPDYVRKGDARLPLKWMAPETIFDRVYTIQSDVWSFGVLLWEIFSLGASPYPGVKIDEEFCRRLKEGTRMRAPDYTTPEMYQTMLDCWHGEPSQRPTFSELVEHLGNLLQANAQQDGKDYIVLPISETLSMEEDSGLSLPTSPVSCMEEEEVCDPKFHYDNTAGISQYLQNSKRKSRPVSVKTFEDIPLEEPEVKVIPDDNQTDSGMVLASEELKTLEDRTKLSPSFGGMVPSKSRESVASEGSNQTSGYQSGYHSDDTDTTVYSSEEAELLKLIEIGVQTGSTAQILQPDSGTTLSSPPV
T1 sequence (P11362 whole entry, change not shown): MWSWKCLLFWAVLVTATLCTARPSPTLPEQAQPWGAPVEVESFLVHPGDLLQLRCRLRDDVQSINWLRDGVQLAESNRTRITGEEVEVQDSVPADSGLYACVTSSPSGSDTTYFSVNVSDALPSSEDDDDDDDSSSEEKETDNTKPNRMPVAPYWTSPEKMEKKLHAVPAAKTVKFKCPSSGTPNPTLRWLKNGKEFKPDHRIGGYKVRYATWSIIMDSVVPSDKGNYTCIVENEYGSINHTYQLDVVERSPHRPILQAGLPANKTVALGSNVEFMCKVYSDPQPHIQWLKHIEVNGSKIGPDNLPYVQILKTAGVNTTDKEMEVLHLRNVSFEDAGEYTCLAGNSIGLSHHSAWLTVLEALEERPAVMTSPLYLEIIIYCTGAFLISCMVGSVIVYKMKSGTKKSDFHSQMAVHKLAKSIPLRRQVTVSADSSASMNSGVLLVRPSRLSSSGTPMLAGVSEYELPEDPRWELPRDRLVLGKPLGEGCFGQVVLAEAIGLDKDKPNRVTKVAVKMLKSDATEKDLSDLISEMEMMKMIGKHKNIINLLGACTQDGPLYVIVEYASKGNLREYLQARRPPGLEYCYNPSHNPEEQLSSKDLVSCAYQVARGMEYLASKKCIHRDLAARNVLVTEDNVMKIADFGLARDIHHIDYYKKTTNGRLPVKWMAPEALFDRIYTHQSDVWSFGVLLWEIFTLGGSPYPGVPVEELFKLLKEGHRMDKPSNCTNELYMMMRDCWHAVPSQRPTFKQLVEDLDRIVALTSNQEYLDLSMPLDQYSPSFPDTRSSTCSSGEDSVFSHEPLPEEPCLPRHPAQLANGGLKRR
Sequence of FGFR4 (h) (P22455 22-802): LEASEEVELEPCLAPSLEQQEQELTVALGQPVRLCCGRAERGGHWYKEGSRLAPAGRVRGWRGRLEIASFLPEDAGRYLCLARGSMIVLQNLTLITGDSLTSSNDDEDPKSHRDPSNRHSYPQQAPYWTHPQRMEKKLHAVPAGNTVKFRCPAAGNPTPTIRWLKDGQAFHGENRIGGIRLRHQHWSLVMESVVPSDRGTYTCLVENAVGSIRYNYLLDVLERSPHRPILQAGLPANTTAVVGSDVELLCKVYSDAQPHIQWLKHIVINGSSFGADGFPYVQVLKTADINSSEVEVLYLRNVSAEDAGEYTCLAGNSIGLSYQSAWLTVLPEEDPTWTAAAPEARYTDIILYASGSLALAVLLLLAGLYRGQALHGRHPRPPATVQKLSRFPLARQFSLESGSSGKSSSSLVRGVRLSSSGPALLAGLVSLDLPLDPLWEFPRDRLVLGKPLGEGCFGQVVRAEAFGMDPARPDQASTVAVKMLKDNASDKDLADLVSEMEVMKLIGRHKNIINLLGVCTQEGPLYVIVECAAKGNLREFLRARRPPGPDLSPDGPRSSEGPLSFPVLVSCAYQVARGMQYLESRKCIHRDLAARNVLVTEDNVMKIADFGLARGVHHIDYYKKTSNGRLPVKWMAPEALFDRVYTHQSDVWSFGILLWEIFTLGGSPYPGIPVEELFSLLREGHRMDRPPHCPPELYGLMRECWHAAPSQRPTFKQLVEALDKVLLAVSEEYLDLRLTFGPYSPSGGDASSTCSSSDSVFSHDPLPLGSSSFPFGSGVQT

Row | IC50 (FGFR4 (h)) | BAF3-FGFR1 (MIN IL3 pIC50) [3] | melting point | IC50 (FGFR1 (h)) | IC50 (KDR (h)) | IC50 (FGFR2 (h)) | IC50 (FGFR3 (h)) | IC50 ([1]; 24 h) | IC50 ([2]; 24 h) | SMILES | IC50 [1, 4] | IC50 [2, 4]
1 | 3.8e-08 M | 6.31 | 195 to 196 °C | 1.38e-08 M | 9.12e-08 M | 1.48e-08 M | 4.17e-09 M | – | – | COc1cc(OC)cc(N(CCO)c2ccc3ncc(-c4cnn(C)c4)cc3c2)c1 [Compound 3] | > 10000 nM | > 10000 nM
2 | > 1e-06 M | <5 | 132 °C | – | > 1e-06 M | > 1e-06 M | 9.12e-07 M | – | – | COc1cc(OC)cc(N(CC2CCN(c3nccc(OC)n3)C2)c2ccc3ncc(-c4cnn(C)c4)cc3c2)c1 (centres unmarked) [Compound 7] | > 10000 nM | > 10000 nM
3 | 1.17e-07 M | 6.27 | 151 °C | – | 8.13e-07 M | 2e-08 M | 3.24e-08 M | – | – | COc1cc(OC)cc(N(Cc2ncccn2)c2ccc3ncc(-c4cnn(C)c4)cc3c2)c1 [Compound 8] | > 10000 nM | > 10000 nM
4 | > 9.33e-07 M | <5.03 | 184 to 193 °C | 2.95e-07 M | > 1e-06 M | 4.17e-07 M | 2.34e-07 M | > 10000 nM | > 10000 nM | COc1cc(OC)cc(C(O)c2ccc3ncc(-c4cnn(C)c4)cc3c2)c1 (centres unmarked) [Compound 12] | – | –
5 | 7.41e-09 M | 7.2 | 129 °C | – | 9.55e-08 M | 5.25e-09 M | 3.47e-09 M | – | – | COc1cc(OC)cc(N(CCNC(C)C)c2ccc3ncc(-c4cnn(CCS(C)(=O)=O)c4)cc3c2)c1 [Compound 14] | > 10000 nM | > 10000 nM
6 | 3.72e-08 M | >8 | 203 °C | 9.33e-09 M | 8.91e-07 M | 1.55e-08 M | 1.35e-08 M | – | – | COc1cc(OC)cc(N(CC#Cc2nccc(OC)n2)c2ccc3ncc(-c4cnn(C)c4)cc3c2)c1 [Compound 16] | – | –
7 | 4.79e-09 M | 6.88 | 196 °C | 2.75e-09 M | 1.15e-07 M | 2.51e-09 M | 1.26e-09 M | – | – | COc1cc(OC)cc(N(Cc2ncc[nH]2)c2ccc3ncc(-c4cnn(C)c4)cc3c2)c1 [Compound 18] | > 10000 nM | > 10000 nM
8 | 7.41e-09 M | 6.36 | – | 4.68e-09 M | 8.51e-07 M | 3.02e-09 M | 1.74e-09 M | – | – | COc1cc(OC)cc(N(Cc2ncc[nH]2)c2ccc3ncc(-c4cccnc4)cc3c2)c1 [Compound 59] | > 10000 nM | > 10000 nM
9 | 4.9e-07 M | 5.29 | – | 9.55e-08 M | 3.16e-07 M | 3.72e-08 M | 3.72e-08 M | – | – | COc1cc(Nc2ccc3ncc(-c4cnn(C5CCCCO5)c4)cc3c2)cc(OC)c1 (centres unmarked) [Int. 8] | > 10000 nM | > 10000 nM
